Assay results taken from the supplement of paper PMC10307832.

Experiments:
Experiment in all cases: relative viability (nuclei count vs DMSO), 5 days (fraction); higher = more cells survive
[1] = system: NCI-H2009
Summary of the method: (§1)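 A single step with final 0.05% Triton X-100, 1% formaldehyde and 1 ug/ml Hoechst fixed the cells and stained nuclei 5 days after treatment. Lung cancer cell lines in 1536-well plates had been treated by pin tool the day after seeding with one drug alone or a fixed anchor-drug dose plus five library-drug doses (not always all listed) in √10 steps, and nuclei were counted on 4× images. Relative viability is the ratio of nuclei in treated wells to nuclei in vehicle wells, taken as the median of duplicate plates.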

[2] = system: NCI-H2342
Summary of the method: as §1

[3] = system: NCI-H1975
Summary of the method: as §1

[4] = system: NCI-H1666
Summary of the method: as §1

[5] = system: UMC-11
Summary of the method: as §1

[6] = system: H3255
Summary of the method: as §1

[7] = system: PC-14
Summary of the method: as §1

[8] = system: NCI-H2228
Summary of the method: as §1

[9] = system: HCC-827
Summary of the method: as §1

[10] = system: NCI-H23
Summary of the method: as §1

[11] = system: PC-3 [JPC-3]
Summary of the method: as §1

[12] = system: LC-2-ad
Summary of the method: as §1

[13] = system: NCI-H2087
Summary of the method: as §1

[14] = system: SK-MES-1
Summary of the method: as §1

[15] = system: ABC-1
Summary of the method: as §1

[16] = system: HCC-15
Summary of the method: as §1

[17] = system: LXF-289
Summary of the method: as §1

[18] = system: NCI-H661
Summary of the method: as §1

[19] = system: NCI-H2085
Summary of the method: as §1

[20] = system: HCC-366
Summary of the method: as §1

[21] = system: NCI-H1437
Summary of the method: as §1

[22] = system: LCLC-103H
Summary of the method: as §1

[23] = system: COR-L23
Summary of the method: as §1

`CCNC(=O)c1noc(-c2cc(C(C)C)c(O)cc2O)c1-c1ccc(CN2CCOCC2)cc1` [Luminespib] + Cc1nc(Nc2ncc(C(=O)Nc3c(C)cccc3Cl)s2)cc(N2CCN(CCO)CC2)n1 [Dasatinib] (partner 0.075 µM) gave a relative viability ([1]; first compound 0.002 µM) of 0.342, a relative viability ([1]; first compound 0.006325 µM) of 0.251 and a relative viability ([1]; first compound 0.02 µM) of 0.222. The relative viability ([1]; first compound 0.06325 µM) was 0.0645, the relative viability ([1]; first compound 0.2 µM) was 0.0808 and the relative viability ([2]; first compound 0.002 µM) was 0.351. The relative viability ([2]; first compound 0.006325 µM) was 0.33, the relative viability ([2]; first compound 0.02 µM) was 0.287 and the relative viability ([2]; first compound 0.06325 µM) was 0.259. For the same compound, the relative viability ([2]; first compound 0.2 µM) was 0.311, the relative viability ([3]; first compound 0.002 µM) was 0.382 and the relative viability ([3]; first compound 0.006325 µM) was 0.347. The relative viability ([3]; first compound 0.02 µM) was 0.14, the relative viability ([3]; first compound 0.06325 µM) was 0.093 and the relative viability ([3]; first compound 0.2 µM) was 0.0892. For the same compound, the relative viability ([4]; first compound 0.002 µM) was 0.873, the relative viability ([4]; first compound 0.006325 µM) was 0.711 and the relative viability ([4]; first compound 0.02 µM) was 0.904. The relative viability ([4]; first compound 0.06325 µM) was 0.85, the relative viability ([4]; first compound 0.2 µM) was 0.748 and the relative viability ([5]; first compound 0.002 µM) was 0.474. The relative viability ([5]; first compound 0.006325 µM) was 0.488, the relative viability ([5]; first compound 0.02 µM) was 0.309 and the relative viability ([5]; first compound 0.06325 µM) was 0.214. It also gave a relative viability ([5]; first compound 0.2 µM) of 0.153, a relative viability ([6]; first compound 0.002 µM) of 0.375 and a relative viability ([6]; first compound 0.006325 µM) of 0.311. It also gave a relative viability ([6]; first compound 0.06325 µM) of 0.406, a relative viability ([6]; first compound 0.2 µM) of 0.197 and a relative viability ([7]; first compound 0.002 µM) of 0.253. It also gave a relative viability ([7]; first compound 0.006325 µM) of 0.272, a relative viability ([7]; first compound 0.02 µM) of 0.0443 and a relative viability ([7]; first compound 0.06325 µM) of 0.0382. It also gave a relative viability ([7]; first compound 0.2 µM) of 0.0374, a relative viability ([8]; first compound 0.002 µM) of 0.423 and a relative viability ([8]; first compound 0.006325 µM) of 0.387. For the same compound, the relative viability ([8]; first compound 0.02 µM) was 0.103, the relative viability ([8]; first compound 0.06325 µM) was 0.096 and the relative viability ([8]; first compound 0.2 µM) was 0.101. It also gave a relative viability ([9]; first compound 0.002 µM) of 0.217, a relative viability ([9]; first compound 0.006325 µM) of 0.262 and a relative viability ([9]; first compound 0.02 µM) of 0.219. The relative viability ([9]; first compound 0.06325 µM) was 0.259, the relative viability ([9]; first compound 0.2 µM) was 0.117 and the relative viability ([10]; first compound 0.002 µM) was 0.839. For the same compound, the relative viability ([10]; first compound 0.006325 µM) was 0.765, the relative viability ([10]; first compound 0.02 µM) was 0.517 and the relative viability ([10]; first compound 0.06325 µM) was 0.118. It also gave a relative viability ([10]; first compound 0.2 µM) of 0.13, a relative viability ([11]; first compound 0.002 µM) of 0.99 and a relative viability ([11]; first compound 0.006325 µM) of 0.945. It also gave a relative viability ([11]; first compound 0.02 µM) of 0.829, a relative viability ([11]; first compound 0.06325 µM) of 0.863 and a relative viability ([11]; first compound 0.2 µM) of 0.25. The relative viability ([12]; first compound 0.002 µM) was 0.583, the relative viability ([12]; first compound 0.006325 µM) was 0.567 and the relative viability ([12]; first compound 0.02 µM) was 0.447. For the same compound, the relative viability ([12]; first compound 0.06325 µM) was 0.142, the relative viability ([12]; first compound 0.2 µM) was 0.16 and the relative viability ([13]; first compound 0.002 µM) was 0.757. It also gave a relative viability ([13]; first compound 0.006325 µM) of 0.441, a relative viability ([13]; first compound 0.02 µM) of 0.317 and a relative viability ([13]; first compound 0.06325 µM) of 0.102. It also gave a relative viability ([13]; first compound 0.2 µM) of 0.086, a relative viability ([14]; first compound 0.002 µM) of 0.333 and a relative viability ([14]; first compound 0.006325 µM) of 0.376. It also gave a relative viability ([14]; first compound 0.02 µM) of 0.217, a relative viability ([14]; first compound 0.06325 µM) of 0.0911 and a relative viability ([14]; first compound 0.2 µM) of 0.0956. The relative viability ([15]; first compound 0.002 µM) was 0.691, the relative viability ([15]; first compound 0.006325 µM) was 0.526 and the relative viability ([15]; first compound 0.02 µM) was 0.446. The relative viability ([15]; first compound 0.06325 µM) was 0.197, the relative viability ([15]; first compound 0.2 µM) was 0.193 and the relative viability ([16]; first compound 0.002 µM) was 0.708. It also gave a relative viability ([16]; first compound 0.006325 µM) of 0.603, a relative viability ([16]; first compound 0.02 µM) of 0.61 and a relative viability ([16]; first compound 0.06325 µM) of 0.084. The relative viability ([16]; first compound 0.2 µM) was 0.0846, the relative viability ([17]; first compound 0.002 µM) was 0.271 and the relative viability ([17]; first compound 0.006325 µM) was 0.238. It also gave a relative viability ([17]; first compound 0.02 µM) of 0.187, a relative viability ([17]; first compound 0.06325 µM) of 0.0634 and a relative viability ([17]; first compound 0.2 µM) of 0.0395. For the same compound, the relative viability ([18]; first compound 0.002 µM) was 0.891, the relative viability ([18]; first compound 0.006325 µM) was 0.954 and the relative viability ([18]; first compound 0.02 µM) was 0.662. It also gave a relative viability ([18]; first compound 0.06325 µM) of 0.286, a relative viability ([18]; first compound 0.2 µM) of 0.233 and a relative viability ([19]; first compound 0.002 µM) of 0.219. For the same compound, the relative viability ([19]; first compound 0.006325 µM) was 0.254, the relative viability ([19]; first compound 0.02 µM) was 0.207 and the relative viability ([19]; first compound 0.06325 µM) was 0.277. The relative viability ([19]; first compound 0.2 µM) was 0.266, the relative viability ([20]; first compound 0.002 µM) was 0.615 and the relative viability ([20]; first compound 0.006325 µM) was 0.576. It also gave a relative viability ([20]; first compound 0.02 µM) of 0.652, a relative viability ([20]; first compound 0.06325 µM) of 0.0301 and a relative viability ([20]; first compound 0.2 µM) of 0.0393. For the same compound, the relative viability ([21]; first compound 0.002 µM) was 0.421, the relative viability ([21]; first compound 0.006325 µM) was 0.316 and the relative viability ([21]; first compound 0.02 µM) was 0.255. For the same compound, the relative viability ([21]; first compound 0.06325 µM) was 0.252, the relative viability ([21]; first compound 0.2 µM) was 0.126 and the relative viability ([22]; first compound 0.002 µM) was 0.493. The relative viability ([22]; first compound 0.006325 µM) was 0.491, the relative viability ([22]; first compound 0.02 µM) was 0.41 and the relative viability ([22]; first compound 0.06325 µM) was 0.536. For the same compound, the relative viability ([22]; first compound 0.2 µM) was 0.529, the relative viability ([23]; first compound 0.002 µM) was 0.6 and the relative viability ([23]; first compound 0.006325 µM) was 0.363. For the same compound, the relative viability ([23]; first compound 0.02 µM) was 0.433, the relative viability ([23]; first compound 0.06325 µM) was 0.0438 and the relative viability ([23]; first compound 0.2 µM) was 0.0462.
